Assay results published in paper PMC6089974 (Nature Communications, 2018).

Target: T1, TmGalA (Thermotoga maritima, UniProt G4FEF4)
T1 construct: gene galA
Assay: time-dependent inactivation, dilution assay, residual activity with 4-nitrophenyl α-D-galactopyranoside
Assay type: biochemical
Settings: covalent, irreversible inactivator; Ki from kobs versus concentration (kinact/Ki analysis); 50 mM HEPES pH 7.4, 37 °C, BSA 1 mg/mL; read-out: Km (μM) / Ki

T1 sequence (G4FEF4 whole entry): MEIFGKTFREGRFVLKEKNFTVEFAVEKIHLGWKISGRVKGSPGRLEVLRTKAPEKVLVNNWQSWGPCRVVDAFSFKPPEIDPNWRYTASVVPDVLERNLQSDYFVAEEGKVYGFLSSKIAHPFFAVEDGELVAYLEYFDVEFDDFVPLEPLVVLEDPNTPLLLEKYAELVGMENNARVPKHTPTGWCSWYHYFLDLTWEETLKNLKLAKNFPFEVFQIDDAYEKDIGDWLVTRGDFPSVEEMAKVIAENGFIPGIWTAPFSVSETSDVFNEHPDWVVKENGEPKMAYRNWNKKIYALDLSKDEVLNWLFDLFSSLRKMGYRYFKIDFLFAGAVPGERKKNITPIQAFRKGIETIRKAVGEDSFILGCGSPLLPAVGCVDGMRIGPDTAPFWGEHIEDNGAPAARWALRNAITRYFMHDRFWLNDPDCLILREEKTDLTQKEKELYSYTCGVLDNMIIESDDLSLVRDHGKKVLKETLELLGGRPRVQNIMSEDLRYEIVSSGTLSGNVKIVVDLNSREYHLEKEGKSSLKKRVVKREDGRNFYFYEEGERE

KI (inactivation): 161 ± 18 µM
SMILES: OC[C@@H]1[C@H](O)[C@H](O)[C@@H](O)[C@H]2O[C@@H]12 [compound 8, cyclophellitol analog 8]
